Source: paper PMC5621377 (Clinical cancer research : an official journal of the …, 2016)

Assays:
[1] = ref unpublished data; cited from earlier work
[2] = system: Ki67 and phosphorylated Rb [pRb]; experiment: Pharmacodynamic biomarkers by immunohistochemistry in skin and tumor biopsies; format: in vivo, human

## CN(C)C(=O)c1cc2cnc(Nc3ccc(N4CCNCC4)cn3)nc2n1C1CCCC1 [ribociclib]
[1]
  nonclinical toxicity finding, bone marrow: hypocellularity
  nonclinical toxicity finding, cardiac: prolongation of the average QTc
  nonclinical toxicity finding, lymphoid system: lymphoid depletion
  nonclinical toxicity finding, testes: atrophy
[2]; 16 paired tumor biopsies
  post-treatment changes in pRb in tumor samples: not significant or consistent
[2]; 19 paired tumor biopsies, baseline to Day 15 of Cycle 1 or 2
  change of Ki67 in tumor biopsies: reductions of Ki67 from baseline were observed at higher ribociclib doses
[2]; 46 paired skin biopsies
  change of pRb in skin samples: Mean decreases of pRb in skin samples were observed at all dose levels
[2]; 48 paired skin biopsies, baseline to Day 15 of Cycle 2
  change of Ki67 in skin biopsies: post-treatment reductions of Ki67 were observed across all dose levels
